Experimental data as given in patent US9795602B2, “Polycyclic-carbamoylpyridone compounds and their pharmaceutical use” (Gilead Sciences, Inc., priority 2014, dated 2017).
Like-named read-outs stand apart in the source and are kept apart here.

Experiments:
Format in all cases: cell-based
[1] = molecular target: PXR (NR1I2) (Homo sapiens (Human), UniProt O75469); test: Human PXR activation assay (luciferase reporter, DPX2 cells); conditions: human
Description: Luciferase Reporter Gene Assay.
A stably transformed tumor cell line (DPX2) was plated on 96-well microtiter plates. […]. The number of viable cells was determined and the reporter gene activity was assessed. […]

[2] = Cytotoxicity (CC50) in MT4 cells, mock-infected; conditions: human
Description: (§1) Infected and uninfected cells are diluted in cell growth medium and 35 μL of 2000 (for MT4) cells is added to each well of the assay plates. Assay plates were then incubated in a 37° C. incubator. After 5 days of incubation, 25 μL of 2× concentrated CellTiter-Glo™ Reagent (catalog # G7573, Promega Biosciences, Inc., Madison, Wis.) was added to each well of the assay plate. Cell lysis was carried out by incubating at room temperature for 2-3 minutes, and then chemiluminescence was read using the Envision reader (PerkinElmer).

[3] = tested on: HIV-IIIb; test: Antiviral assay in MT4 cells
Description: 1 mL aliquots of 2×10^6 MT4 cells are pre-infected for 1 and 3 hours respectively at 37° C. with 25 μL (MT4) or of either cell growth medium (mock-infected) or a fresh 1:250 dilution of an HIV-IIIb concentrated ABI stock (0.004 m.o.i. for MT4 cells). Infected and uninfected cells are diluted in cell growth medium and 35 μL of 2000 (for MT4) cells is added to each well of the assay plates.
as §1, with “Assay” for “Infected and uninfected cells are diluted in cell growth medium and 35 μL of 2000 (for MT4) cells is added to each well of the assay plates. Assay”

[4] = Human immunodeficiency virus 1, IIIB, MT4, 120 h, MT4 cells, HIV-IIIb, 5 days, read-out: EC50
[5] = 15 uM, DPX2 cells, % Emax relative to rifampicin, adjusted for DMSO background, read-out: PXR % inh at 15 uM (adjusted)

Sequence of PXR (NR1I2) (O75469 whole entry): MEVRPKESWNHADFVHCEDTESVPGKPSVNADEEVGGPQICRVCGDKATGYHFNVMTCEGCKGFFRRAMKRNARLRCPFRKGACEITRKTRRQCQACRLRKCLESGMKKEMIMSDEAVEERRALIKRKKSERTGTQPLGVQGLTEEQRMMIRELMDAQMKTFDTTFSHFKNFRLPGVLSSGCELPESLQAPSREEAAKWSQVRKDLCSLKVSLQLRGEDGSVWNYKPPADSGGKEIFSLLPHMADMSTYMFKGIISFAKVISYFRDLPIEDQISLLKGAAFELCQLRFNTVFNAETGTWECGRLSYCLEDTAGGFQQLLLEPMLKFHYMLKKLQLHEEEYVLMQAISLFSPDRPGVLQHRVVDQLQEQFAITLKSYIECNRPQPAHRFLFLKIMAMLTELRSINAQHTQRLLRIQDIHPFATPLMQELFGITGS

EC50 [3, 4] [µM]	inhibition at 24 h, 15 µM [1, 5] [%]	SMILES	CC50 at 5 days ([2]; mock-infected (uninfected)) [µM]	other results
0.00643		CN1C(=O)c2c(O)c(=O)c(C(=O)NCc3c(F)cc(F)cc3F)cn2[C@@H]2CCCC[C@H]21 [Compound 1]	27.3	inhibition at 24 h, 15 µM [1]: 32%
0.0043	1	CN1C(=O)c2c(O)c(=O)c(C(=O)NCc3c(F)cc(F)cc3F)cn2[C@H]2CCOC[C@H]21 [Compound 48]	32.3	
0.0057	9	CCN1C(=O)c2c(O)c(=O)c(C(=O)NCc3ccc(F)c(C)c3F)cn2[C@H]2CCOC[C@H]21 [Compound 47]	27.2	
0.00377	8	CN1C(=O)c2c(O)c(=O)c(C(=O)NCc3c(F)cc(F)cc3F)cn2[C@@H]2CCO[C@@H]21 [Compound 23]	18	
0.00369	4	CN1C(=O)c2c(O)c(=O)c(C(=O)NCc3ccc(F)c(Cl)c3F)cn2[C@@H]2CCOC[C@H]21 [Compound 11]	8.32	
0.00458	20	CCN1C(=O)c2c(O)c(=O)c(C(=O)NCc3ccc(F)c(Cl)c3F)cn2[C@@H]2CCO[C@@H]21 [Compound 25a]	25.9	
0.00283	67	CC(C)N1C(=O)c2c(O)c(=O)c(C(=O)NCc3c(F)cc(F)cc3F)cn2[C@H]2CCOC[C@H]21 [Compound 38]	16.6	
0.00527	15	CCN1C(=O)c2c(O)c(=O)c(C(=O)NCc3c(F)cc(F)cc3F)cn2[C@@H]2CCO[C@@H]21 [Compound 26a]	24.3	
0.00292	8	C[C@@H]1OCC[C@H]2[C@@H]1N(C)C(=O)c1c(O)c(=O)c(C(=O)NCc3c(F)cc(F)cc3F)cn12 [Compound 54, (4S,4aS,11aS)-7-hydroxy-4,5-dimethyl-6,8-dioxo-N-(2,4,6-trifluorobenzyl)-1,2,4,4a,5,6,8,11a-octahydropyrano[3,4-e]pyrido[1,2-a]pyrazine-9-carboxamide]		CC50 at 5 days ([2]; mock-infected): 23.9 µM
0.00131		CCN1C(=O)c2c(O)c(=O)c(C(=O)NCc3c(F)cc(F)cc3F)cn2[C@H]2CCC3(C[C@H]21)OCCO3 [Compound 40b]	23.1	inhibition at 24 h, 15 µM [1]: 22%
0.0039		CN1C(=O)c2c(O)c(=O)c(C(=O)NCc3c(F)cc(F)cc3F)cn2[C@H]2CCCC[C@@H]21 [Compound 2]	11.2	inhibition at 24 h, 15 µM [1]: 46%
0.00765		CN1C(=O)c2c(O)c(=O)c(C(=O)NCc3c(F)cc(F)cc3F)cn2[C@@H]2CCOC[C@H]21 [Compound 10]	34.9	
0.00729	29	CCCN1C(=O)c2c(O)c(=O)c(C(=O)NCc3c(F)cc(F)cc3F)cn2[C@@H]2CCO[C@@H]21 (racemic) [Compound 24]		CC50 at 5 days ([2]; mock-infected): 37.5 µM
0.0063		O=C(NCc1c(F)cc(F)cc1F)c1cn2c(c(O)c1=O)C(=O)N[C@H]1CCCC[C@@H]12 [Compound 61]	31.4	inhibition at 24 h, 15 µM [1]: 0%
0.0044	4	O=C(NCc1c(F)cc(F)cc1F)c1cn2c(c(O)c1=O)C(=O)N[C@H]1CCC[C@H]12 [Compound 28]	10.8	
		CN1C(=O)c2c(O)c(=O)c(C(=O)NCc3c(F)cc(F)cc3F)cn2[C@H]2CCC[C@H]21 [Compound 58]		inhibition at 15 µM [1, 5]: 25%
0.00332	1	CN1C(=O)c2c(O)c(=O)c(C(=O)NCc3ccc(F)c(Cl)c3F)cn2[C@H]2CCOC[C@H]21 [Compound 49]	12	
0.00604	46	CN1C(=O)c2c(O)c(=O)c(C(=O)NCc3c(F)cc(F)cc3F)cn2[C@H]2[C@@H]3C[C@@H]3C[C@H]21 [Compound 53, (6aR,7aR,8aR,8bS)-4-hydroxy-6-methyl-3,5-dioxo-N-(2,4,6-trifluorobenzyl)-5,6,6a,7,7a,8,8a, 8b-octahydro-3H-cyclopropa[3,4]cyclopenta[1,2-e]pyrido[1,2-a]pyrazine-2-carboxamide]		CC50 at 5 days ([2]; mock-infected): 13.3 µM
0.00567	3	CN1C(=O)c2c(O)c(=O)c(C(=O)NCc3c(F)cc(F)cc3F)cn2[C@H]2COC[C@H]21 [Compound 42]	31.9	

EC50 [3, 4] [µM]	inhibition at 24 h, 15 µM [1, 5] [%]	SMILES	CC50 at 5 days ([2]; mock-infected (uninfected)) [µM]	other results
0.00293	8	CN1C(=O)c2c(O)c(=O)c(C(=O)NCc3c(F)cc(F)cc3F)cn2[C@@H]2COC[C@H]21 [Compound 46]	28.2	
0.0165	24	O=C(NCc1c(F)cc(F)cc1F)c1cn2c(c(O)c1=O)C(=O)N(CC(F)(F)F)[C@@H]1CCOC[C@H]12 [Compound 8]	57.1	
0.00288	13	CN1C(=O)c2c(O)c(=O)c(C(=O)NCc3c(F)cc(F)cc3F)cn2[C@@H]2COC[C@@H]21 [Compound 43]	11.3	
0.00229	3	CCN1C(=O)c2c(O)c(=O)c(C(=O)NCc3ccc(F)c(Cl)c3F)cn2[C@H]2COCC[C@H]21 [Compound 57, (4aR,11aR)-N-(3-chloro-2,4-difluorobenzyl)-5-ethyl-7-hydroxy-6,8-dioxo-1,3,4,4a,5,6,8,11a-octahydropyrano[4,3-e]pyrido[1,2-a]pyrazine-9-carboxamide]		CC50 at 5 days ([2]; mock-infected): 6.45 µM
0.00333	2	CCN1C(=O)c2c(O)c(=O)c(C(=O)NCc3cccc(F)c3F)cn2[C@H]2CCOC[C@H]21 [Compound 18]	26.9	
0.00117		CN1C(=O)c2c(O)c(=O)c(C(=O)NCc3ccc(F)c(Cl)c3F)cn2[C@@H]2CCO[C@@H]21 [Compound 27]	57.1	
0.00289	26	CN1C(=O)c2c(O)c(=O)c(C(=O)NCc3c(F)cc(F)cc3F)cn2[C@H]2COCC[C@]21C [Compound 14]	11.6	
0.0149	36	O=C(NCc1c(F)cc(F)cc1F)c1cn2c(c(O)c1=O)C(=O)N(CC(F)(F)F)[C@@H]1CCCC[C@H]12 [Compound 7]	19.8	
0.0038	6	O=C(NCc1c(F)cc(F)cc1F)c1cn2c(c(O)c1=O)C(=O)N(CC(F)(F)F)[C@@H]1COCC[C@H]12 [Compound 35]	16.5	
0.00474	66	CCN1C(=O)c2c(O)c(=O)c(C(=O)NCc3c(F)cc(F)cc3F)cn2[C@@H]2CCCC[C@@H]21 [Compound 5]	17	
		CN1C(=O)c2c(O)c(=O)c(C(=O)NCc3c(F)cc(F)cc3F)cn2[C@H]2COCC[C@]21C(F)F [Compound 9]	11.3	inhibition at 15 µM [1]: 27%; EC50 ([3]; Human immunodeficiency virus 1, IIIB, MT4, 120 h): 0.0014 µM
0.00268	1	O=C(NCc1ccc(F)c(Cl)c1F)c1cn2c(c(O)c1=O)C(=O)N(CC(F)(F)F)[C@@H]1COCC[C@@H]12 [Compound 50]	48.4	
0.00427	35	CCCN1C(=O)c2c(O)c(=O)c(C(=O)NCc3c(F)cc(F)cc3F)cn2[C@H]2CCOC[C@H]21 [Compound 37]	33.9	
0.00158	5	O=C(NCc1ccc(F)c(Cl)c1F)c1cn2c(c(O)c1=O)C(=O)N(CC(F)F)[C@@H]1COCC[C@@H]12 [Compound 36]	19.7	
0.00128		CCN1C(=O)c2c(O)c(=O)c(C(=O)NCc3c(F)cc(F)cc3F)cn2[C@H]2CCC(=O)C[C@H]21 [Compound 40a]	29	inhibition at 24 h, 15 µM [1]: 4%
0.00481	7	CCN1C(=O)c2c(O)c(=O)c(C(=O)NCc3cc(F)c(F)cc3F)cn2[C@H]2CCOC[C@H]21 [Compound 17]	23.9	
0.00296		CN1C(=O)c2c(O)c(=O)c(C(=O)NCc3c(F)cc(F)cc3F)cn2[C@@H]2CCCC[C@@H]21 [Compound 3]	11	
		CN1C(=O)c2c(O)c(=O)c(C(=O)NCc3c(F)cc(F)cc3F)cn2[C@@H]2CCC[C@@H]21 [Compound 29]		inhibition at 15 µM [1, 5]: 49%

SMILES	EC50 [3, 4] [µM]	inhibition at 24 h, 15 µM [1, 5] [%]	CC50 at 5 days ([2]; mock-infected (uninfected)) [µM]	other results
CN1C(=O)c2c(O)c(=O)c(C(=O)NCc3c(F)cc(F)cc3F)cn2[C@H]2C[C@@H]3C[C@@H]3[C@H]21 [Compound 51, (6aR,6bS,7aS,8aS)-4-hydroxy-6-methyl-3,5-dioxo-N-(2,4,6-trifluorobenzyl)-5,6,6a,6b,7,7a,8,8a-octahydro-3H-cyclopropa[4,5]cyclopenta[1,2-e]pyrido[1,2-a]pyrazine-2-carboxamide]		33		CC50 at 5 days ([2]; mock-infected): 6.71 µM; EC50 ([3]; Human immunodeficiency virus 1, 120 h, MT4 cells, HIV-IIIb, 5 days, read-out: EC50): 0.00528 µM
